Test results taken from patent US20180045715A1, “STRUCTURE AND FUNCTION OF THE SALICYCLIC ACID BINDING SITES ON HUMAN HMGB1 AND METHODS OF USE THEREOF FOR THE RATIONAL DESIGN OF BOTH SALICYCLIC ACID DERIVATIVES AND OTHER AGENTS THAT ALTER ANIMAL AND PLANT HMGBS ACTIVITIES” (Boyce Thompson Institute for Plant Research, Inc., priority 2015, published 2018).
Residue numbers refer to the chain shown, from its start. pIC50: −log10 of the molar value. One block for each compound: values may come before it.

Columns and labels:
AtHMGB1 = molecular target: T1, AtHMGB1 (Arabidopsis thaliana, UniProt O49595); test: SPR: AtHMGB1 binding to immobilized 3AESA
T1 sequence (O49595 1-178): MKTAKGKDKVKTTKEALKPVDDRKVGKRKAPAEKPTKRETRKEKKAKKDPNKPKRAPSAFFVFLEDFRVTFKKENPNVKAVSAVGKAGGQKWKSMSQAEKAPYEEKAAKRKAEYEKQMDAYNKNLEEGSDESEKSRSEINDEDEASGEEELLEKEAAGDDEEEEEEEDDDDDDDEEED
Protocol: For SPR, 3-AESA was immobilized on a CM5 sensor chip (GE Healthcare) using the amine coupling kit (GE Healthcare). To test SA binding activity, 0.5 μM HMGB1 in HBS-EP buffer (0.01 M HEPES, pH 7.4, 0.15 M NaCl, 3 mM EDTA, 0.005% v/v Surfactant P20; GE Healthcare) without or with varying concentrations of SA was flowed through 3-AESA-immobilized or mock-coupled flow cells. The binding signals were determined by subtracting out the signal from the mock-coupled flow cell.

AtHMGB3 = molecular target: T2, AtHMGB3 (Arabidopsis thaliana, UniProt P93047); test: SPR: AtHMGB3 binding to immobilized 3AESA; set-up: providing a full length Arabidopsis thaliana HMGB1 or HMGB3 (AtHMGB1 or AtHMGB3) protein; 6x His; made in house; host or cells: Escherichia coli BL21
T2 sequence (P93047 1-141): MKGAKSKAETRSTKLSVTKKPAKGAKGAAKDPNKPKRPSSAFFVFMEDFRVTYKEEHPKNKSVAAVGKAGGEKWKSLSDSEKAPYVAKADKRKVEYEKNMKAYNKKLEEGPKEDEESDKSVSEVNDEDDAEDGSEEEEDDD

COX = details: cited from earlier work
[1] = de-acetylation by esterases in human plasma (Costello et al., 1984); cited from earlier work
HMGB1^RE = molecular target: T3, HMGB1^RE (Homo sapiens, UniProt P09429); test: Chemotaxis assay (Boyden chambers): HMGB1^RE-elicited migration of mouse 3T3 fibroblasts; assay type: cell-based
T3 construct: (i) full length: residues 2-215; 6x His (cleaved yes); made in house; host or cells: Escherichia coli BL21
T3 sequence (P09429 2-215): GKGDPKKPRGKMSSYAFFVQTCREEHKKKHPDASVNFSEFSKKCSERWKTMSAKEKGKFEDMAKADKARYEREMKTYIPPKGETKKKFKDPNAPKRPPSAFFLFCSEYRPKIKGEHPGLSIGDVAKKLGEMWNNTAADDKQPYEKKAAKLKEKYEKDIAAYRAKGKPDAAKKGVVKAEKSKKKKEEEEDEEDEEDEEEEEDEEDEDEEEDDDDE
Protocol: (§1) Cell migration was assayed using Boyden chambers (Venereau et al., 2012). The downside of PVP-free polycarbonate filters (8 μm pores; Millipore) was coated with 50 μg/ml fibronectin (Sigma). Serum-free DMEM (negative control), DMEM containing 0.1 nM fMLP (positive control; Sigma), or DMEM containing 1 nM HMGB1^RE or HMGB1^SS were placed in the lower chamber, together with different concentrations of SA (Sigma). The mouse 3T3 fibroblast cells were cultured in DMEM media supplemented with 10% CS until 90% confluence, washed twice with PBS to eliminate any floating cells, and harvested with trypsin. 50,000 cells in 200 μL were added to the upper chamber, and cells were left to migrate for 3 h at 37° C. Non-migrating cells were removed with a cotton swab, and migrated cells were fixed with ethanol and stained with Giemsa.
(§2) HMGB1^RE acts as a chemo-attractant that mediates migration of several cell types, including monocytes, fibroblasts, mesoangioblasts, smooth muscle cells, and colon cancer cells (Venereau et al., 2012). To determine whether SA alters HMGB 1's chemo-attractant activity, a chemotaxis assay was performed with mouse 3T3 fibroblasts.

[2] = test system: fMLP-induced migration of NIH/3T3 fibroblast cells; test: Chemotaxis assay: fMLP-induced fibroblast migration (specificity control); assay type: cell-based, mouse; details: 0.1 nM fMLP
Protocol: as §1, §2

[3] = molecular target: T4, mutant (R24A/K28A) HMGB1^RE (Homo sapiens, UniProt P09429, K28A/R24A); test: Chemotaxis assay with mutant R24A/K28A HMGB1^RE; assay type: cell-based; details: NIH/3T3 fibroblasts
T4 construct: (i) full length: residues 2-215; made in house
T4 sequence (P09429 2-215 R24A/K28A): T3 sequence (P09429 2-215) with R23A, K27A
Protocol: as §1
(§3) An alternative explanation is that SA, at low concentrations, affects another factor in vivo, which results indirectly in suppression of HMGB1^RE-induced chemotaxis. […] Therefore, these residues were mutated to Ala to form the double mutant Arg24Ala/Lys28Ala (R24A/K28A).

[4] = molecular target: T5, full-length (FL) R24A/K28A HMGB1 (Homo sapiens, UniProt P09429, K28A/R24A); test: 15N-1H HSQC NMR binding to R24A/K28A HMGB1; details: ~0.1 mM protein; 15 mM SA, 3 mM ac3AESA or 3 mM amorfrutin B1
T5 construct: (i) full length: residues 2-215; made in house
T5 sequence (P09429 2-215 R24A/K28A): T3 sequence (P09429 2-215) with R23A, K27A
Protocol: […] Samples were analyzed with and without SA or other candidate inhibitors at 25° C. Chemical shift perturbation studies were carried out using either a Bruker Avance 800 MHz Avance NMR system with 4-mm NMR tubes, or using a Bruker Avance 600 MHz NMR spectrometer equipped with a 1.7 mm micro cryoprobe. 1024 or 2048 complex points were acquired for each of 80 to 200 increments in the ^15N dimension with a recycle delay of 1 s. Each spectrum was typically acquired for 2-8 hrs. Chemical shift assignments were determined using a uniformly ^13C,^15N-enriched HMGB1-ΔC construct at 25° C. via traditional triple-resonance NMR experiments (Biamonti et al., 1994; Moseley et al., 2001) recorded on a Bruker 800 MHz NMR spectrometer equipped with a 5 mm cryoprobe. Disulfide oxidation studies were carried out using the ^15N-^1H SOFAST-HMQC NMR experiment (Schanda & Brutscher, 2005; Schanda et al., 2005; Zandarashvili et al., 2013).
as §3

SMILES: NCCc1cccc(C(=O)O)c1O [3AESA, 3-aminoethyl SA]
binding of AtHMGB1 to 3AESA immobilized to SPR sensor chip (AtHMGB1): effectively bound
binding of AtHMGB3 to 3AESA immobilized to SPR sensor chip (AtHMGB3): effectively bound

SMILES: CC(=O)Oc1ccccc1C(=O)O [aspirin, acetylsalicylic acid]
IC50, inhibition of COX activity in vitro (COX; literature (Mitchell et al., 1997; Vane, 1971)): 6.3 µg/mL
pIC50 (COX; literature, conversion in parentheses, read-out: IC50, inhibition of COX activity in vitro): ~4.46
half-life of conversion to SA [1]: 13 to 19.5 min

pIC50 (HMGB1^RE; NIH/3T3 fibroblasts, 1 nM HMGB1^RE, read-out: IC50, inhibition of chemo-attractant activity of HMGB1^RE): ~7.22
times more potent than SA at inhibiting the chemo-attractant activity of HMGB1^RE (HMGB1^RE; relative to SA): 50-70 times
inhibition of R24A/K28A HMGB1^RE's chemo-attractant activity [3]: only partially
binding to R24A/K28A HMGB1 (CSPs in HSQC) [4]: do not bind
SMILES: COc1cc(CCc2ccccc2)c(C(=O)O)c(O)c1C/C=C(\C)CCC=C(C)C [amorfrutin B1]
effect on fibroblast migration induced by fMLP [2]: but not of 0.1 nM fMLP, was blocked
